Reference: the NIST ThermoML archive (doi:10.1016/j.jct.2018.01.019)
± gives the expanded uncertainty stated by the source.

Experiment: molar heat capacity at constant pressure
Conditions: 101.33 kPa, Small sample (50 mg) DSC

O=[Si]=O [silicon dioxide]
Conditions | molar heat capacity at constant pressure [J/K/mol]
809.47 K, Crystal 2 | 72.53 ± 1.3
809.64 K, Crystal 2 | 72.6 ± 1.2
809.8 K, Crystal 2 | 72.59 ± 1.2
809.97 K, Crystal 2 | 72.54 ± 1.1
855 K, Crystal 1 | 69.38 ± 1.3
855.17 K, Crystal 1 | 69.28 ± 1.2
855.33 K, Crystal 1 | 69.26 ± 1.2
855.5 K, Crystal 1 | 69.13 ± 1.1
855.67 K, Crystal 1 | 69.16 ± 1.2
855.83 K, Crystal 1 | 69.22 ± 1.2
856 K, Crystal 1 | 69.21 ± 1.2
856.16 K, Crystal 1 | 69.11 ± 1.2
856.33 K, Crystal 1 | 69.06 ± 1.2
856.5 K, Crystal 1 | 68.99 ± 1.1
856.66 K, Crystal 1 | 68.93 ± 1.1
856.83 K, Crystal 1 | 68.69 ± 1.1
857 K, Crystal 1 | 68.5 ± 1.1
857.17 K, Crystal 1 | 68.55 ± 1.2
857.34 K, Crystal 1 | 68.66 ± 1.2
857.51 K, Crystal 1 | 68.7 ± 1.1
857.68 K, Crystal 1 | 68.71 ± 1.2
857.84 K, Crystal 1 | 68.75 ± 1.2
858.01 K, Crystal 1 | 68.66 ± 1.2
858.17 K, Crystal 1 | 68.56 ± 1.2
858.34 K, Crystal 1 | 68.6 ± 1.1
858.51 K, Crystal 1 | 68.58 ± 1.1
858.68 K, Crystal 1 | 68.63 ± 1.1
858.84 K, Crystal 1 | 68.51 ± 1.1
859.01 K, Crystal 1 | 68.34 ± 1.1
859.18 K, Crystal 1 | 68.29 ± 1.1
859.34 K, Crystal 1 | 68.29 ± 1.1
859.51 K, Crystal 1 | 68.3 ± 1.1
859.68 K, Crystal 1 | 68.35 ± 1.1
859.84 K, Crystal 1 | 68.21 ± 1.1
860.01 K, Crystal 1 | 68.03 ± 1.1
860.18 K, Crystal 1 | 68.14 ± 1.1
860.34 K, Crystal 1 | 68.2 ± 1.1
860.51 K, Crystal 1 | 68.18 ± 1.1
860.67 K, Crystal 1 | 68.22 ± 1.1
860.84 K, Crystal 1 | 68.32 ± 1.1
861.01 K, Crystal 1 | 68.41 ± 1.1
861.17 K, Crystal 1 | 68.37 ± 1.1
861.34 K, Crystal 1 | 68.49 ± 1.1
861.51 K, Crystal 1 | 68.55 ± 1.1
861.67 K, Crystal 1 | 68.37 ± 1.1
861.84 K, Crystal 1 | 68.37 ± 1.1
862.01 K, Crystal 1 | 68.4 ± 1.1
862.18 K, Crystal 1 | 68.4 ± 1.1
862.34 K, Crystal 1 | 68.53 ± 1.1
862.51 K, Crystal 1 | 68.5 ± 1.1
862.68 K, Crystal 1 | 68.45 ± 1.1
862.84 K, Crystal 1 | 68.5 ± 1.1
863.01 K, Crystal 1 | 68.42 ± 1.1
863.18 K, Crystal 1 | 68.35 ± 1.1
863.35 K, Crystal 1 | 68.3 ± 1.1
863.51 K, Crystal 1 | 68.21 ± 1.1
863.68 K, Crystal 1 | 68.19 ± 1.1
863.85 K, Crystal 1 | 68.28 ± 1.1
864.01 K, Crystal 1 | 68.44 ± 1.1
864.18 K, Crystal 1 | 68.48 ± 1.1
864.34 K, Crystal 1 | 68.4 ± 1.1
864.51 K, Crystal 1 | 68.29 ± 1.1
864.68 K, Crystal 1 | 68.37 ± 1.1
864.84 K, Crystal 1 | 68.59 ± 1.1
865.01 K, Crystal 1 | 68.52 ± 1.1
865.18 K, Crystal 1 | 68.35 ± 1.1
865.34 K, Crystal 1 | 68.39 ± 1.1
865.5 K, Crystal 1 | 68.4 ± 1.1
865.67 K, Crystal 1 | 68.46 ± 1.1
865.84 K, Crystal 1 | 68.59 ± 1.1
866.01 K, Crystal 1 | 68.64 ± 1.1
866.18 K, Crystal 1 | 68.69 ± 1.1
866.35 K, Crystal 1 | 68.59 ± 1.1
866.51 K, Crystal 1 | 68.39 ± 1.1
866.67 K, Crystal 1 | 68.35 ± 1.1
866.84 K, Crystal 1 | 68.26 ± 1.1
867.01 K, Crystal 1 | 68.21 ± 1.1
867.17 K, Crystal 1 | 68.25 ± 1.1
867.34 K, Crystal 1 | 68.38 ± 1.1
867.51 K, Crystal 1 | 68.37 ± 1.1
867.67 K, Crystal 1 | 68.45 ± 1.1
867.84 K, Crystal 1 | 68.49 ± 1.1
868.01 K, Crystal 1 | 68.4 ± 1.1
868.18 K, Crystal 1 | 68.35 ± 1.1
868.34 K, Crystal 1 | 68.32 ± 1.1
868.51 K, Crystal 1 | 68.4 ± 1.1
868.68 K, Crystal 1 | 68.45 ± 1.1
868.85 K, Crystal 1 | 68.49 ± 1.1
869.01 K, Crystal 1 | 68.43 ± 1.1
